For data set [1] the following is noted: bilateral hippocampal sparing whole brain radiation with memantine; cited from earlier work.
Data set [2] relates to IDH-1 wild-type glioblastoma. Nature of the data set: Case presentation: elderly glioblastoma patient treated with involved-field radiotherapy and concomitant daily TMZ. The format is in vivo, human. An excerpt:
A right-handed person had developed confusion, word-finding difficulty and slurred speech. These symptoms included making phone calls to their spouse and asking their non-sensible questions. They lost their words intermittently and forgot names of their family members on a number of occasions. They recounted old stories as if they were perseverating and answered questions in the affirmative without actually hearing the question. Their mood also became more irritable. Their past medical history was notable for a skull fracture after fall from horseback riding when they were a teenager. The patient had undergone a neurocognitive evaluation from a memory disorder clinic in a major academic medical center and they had been diagnosed with a non-specific memory disorder.
The patient underwent a gross total resection of the mass 4 days after the MRI. […] Immunohistochemical staining was negative for IDH-1 R132H mutation but positive for ATRX, GFAP, Olig-2 and p53.
The radiation administered consisted of standard external beam radiotherapy. The left temporal postsurgical cavity as well as the ipsilateral putamen and globus pallidus were included in the maximum 6,000 cGy isodose line (see FIG. 2). The brainstem was covered in the 3,000 cGy isodose line while the contralateral putamen and globus pallidus received up to 1,800 cGy of radiation.
They became more forgetful and developed imbalance. […]

Structures are written as SMILES.

Take `CC12CC3CC(C)(C1)CC(N)(C3)C2` [memantine]: the “neurocognitive function versus traditional fractionated whole brain radiotherapy” value in data set [1] is on record as “preserves neurocognitive function better”.
Regarding `Cn1nnc2c(C(N)=O)ncn2c1=O` [TMZ, temozolomide], the “cognitive status after treatment” value in data set [2] (after radiation (up to 6,000 cGy) and TMZ, patient with diffuse Lewy body disease at autopsy) is on record as “rapidly deteriorated”. Moreover, the “haematological toxicity limiting chemotherapy” value in data set [2] (person, concomitant daily TMZ with involved-field radiotherapy, only two weeks of chemotherapy administered) is on record as “low blood counts”.

Source of the values: US20250049785A1, “METHODS FOR THE TREATMENT OF GLIOBLASTOMA THAT MINIMIZE RADIATION DAMAGE IN SUSCEPTIBLE PATIENTS” (Rhode Island Hospital, priority 2021, published 2025).
